Measurements reported in patent publication US8883763B2 (Universite Joseph Fourier, priority 2010, dated 2014).
pIC50: −log10 of the molar value.

Experiments:
HeLa cells = assay: Indirect immunofluorescence: effect on HeLa cells (mitotic arrest, microtubule depolymerization); type: cell-based, human; parameters: key to Effect on Hela at 25 μM / Effect on Hela at 100 μM / Effect on Hela at 50 and 100 μM / Effect on Hela at 50 μM: —: −: no activity on the cells at 25 μM (if there is an effect at high concentrations, this is specified in the table).; *: weak activity (MA and/or slight depolymerization of the MTs and/or slight inhibition of proliferation),; **: average activity (MA and/or moderate depolymerization of the MTs and/or moderate inhibition of proliferation),; ***: strong activity (MA and/or pronounced depolymerization of the MTs and/or pronounced inhibition of proliferation),; ****: very strong activity (MA and/or very pronounced depolymerization of the MTs and/or strong inhibition of proliferation); details: 24 hours; for Effect on Hela at 25 μM: mitotic index and/or depolymerization of the MTs
Description: The cells were cultured on slides in 24-well plates and incubated for 24 hours with molecule 6 at different concentrations from 1 to 10 μM.
Corresponding quantities of DMSO were added to the culture medium in the control wells.
The cells were fixed in a solution of PBS with 4% paraformaldehyde (PFA) and 0.1% glutaraldehyde (GA), for 15 minutes and centrifuged at 300 g for the last 10 minutes of the fixing. The slides were rinsed in PBS and the free aldehyde groups were reduced by two successive 5-minute incubations in PBS containing 1 mg/ml of NaBH4.
After one washing with PBS then another with PBST (PBS with 0.5% triton-X-100), the cells are incubated for 30 minutes at ambient temperature with anti α-tubulin monoclonal antibody solution (DM1A clone, Sigma # T6199) diluted to 1:200 in PBST. After 3 10-minute washings with PBST, the cells are incubated for 30 minutes at ambient temperature in a solution of goat anti-mouse polyclonal antibodies coupled with Alexa 488 (1:1000, Molecular Probes # A-11029) and phalloidin coupled with Texas red to label the actin (1:2000, Molecular Probes # T7471), in PBST also containing Hoechst 33258 (1 μg/ml) for labelling the DNA. After 3 10-minute washings in PBST, the slides are mounted on plates in Fluorsave™ mounting medium (Calbiochem #345789) and are observed and analyzed using an Axiovert 200M inverted fluorescence microscope (Zeiss®). The images are produced with a Plan-Apochromat 63× oil objective (Zeiss®) by means of a Coolsnap HQ camera (Roper Scientifics®) and with Metamorph acquisition software (Universal Imaging™ Corporation).
In order to evaluate the effect of the analogues of compound 6 on PHFs and HeLa cells, the immunofluorescence technique described above was used and adapted to a 96-well dish format. The cells were seeded in glass-bottomed 96-well dishes and incubated for 24 hours in the presence of different concentrations of molecules from 100 μM to 50 nM. And in the same way as described above, the cells were fixed and immunolabelled. Analysis of the phenotypes as well as counting the mitotic cells were carried out with the same microscope but using a ×40 objective (Olympus). The molecules were compared with each other with respect to the mitotic arrest induced on PHFs and HeLa cells at 25 and 0.3 μM.
The mitotic index and/or the depolymerization of the MTs were evaluated at 25 μM.

bovine brain tubulin = assay: In vitro tubulin polymerization test (turbidimetry at 350 nm); type: biochemical; details: molecules at 50 μM, calculated at t=3000 s, DMSO control = 100%
Description: Tubulin was purified from bovine brain using the polymerization-depolymerization process described by (Castoldi M and Popov A V. Protein Expr Purif. 2003, 32(1): pp 83-8).
The in vitro tubulin polymerization tests (at 50 μM) were carried out in the presence of GTP 1 mM in BRB80 buffer (80 mM K-PIPES pH 6.8, 1 mM MgCl2, 1 mM EGTA) at 37° C. The tests were carried out in 96-microwell plates (half-wells) (Costar plates, Corning #3695), in triplicate with a final volume of 70 μl. Tubulin assembly was carried out in the presence of compound 6 or its analogues (all used at a concentration of 50 μM) and was monitored by turbidimetry measurement at 350 nm using a spectrophotometer (Spectramax More, Molecular Devices).
Measurement of the effect of a molecule on polymerization was calculated at t=3000 s taking the value of the control at the same time as being equal to 100%.

PP1α (PP1CA) = biological target: T1, PP1α (PP1CA) (Oryctolagus cuniculus, UniProt P62139); assay: Protein phosphatase test (PP1 activity, DiFMUP fluorescent substrate); type: biochemical; details: PP1CA at 80 mU, fluorescent substrate (50 μM), molecules from 50 μM to 50 nM; read-out: PP1 Inhibition IC50
T1 construct: purchased New England Biolabs P0754
Description: FIG. 13 presents the graph showing the inhibition of the PP1Cα activity by compound 6 in vitro. PP1Cα (New England Biolabs, 30 mU/well) was incubated in the presence of compound 6 at different concentrations and a fluorescent substrate, diFMUP.
Determination of the 1050 was carried out with PP1CA at 80 mU in the presence of a fluorescent substrate
(50 μM) and different concentrations of molecules from 50 μM to 50 nM.
For the activity tests, PP1α (New England Biolabs # P0754) was used at a final concentration of 30 mU or 80 mU for the screening of all the analogues. 6,8-difluoro-4-methylumbelliferyl phosphate (DiFMUP, Invitrogen # D6567) was used as fluorescent substrate at a concentration of […]. All the tests were carried out in a final volume of 100 μl, at 37° C. in 96-microwell plates (Greiner #655096).
Compound 6, combretastatin A4 (CA-4) as well as all the analogues were diluted in 50 μl of PP1 buffer (100 mM Tris-HCl, pH 7.5, 4 mM DTT, 0.2 mM EDTA, 0.5 mM MnCl2) from 50 μM to 50 nM. Corresponding quantities of DMSO were added to control wells. PP1α (30 or 80 mU in 30 μl of PP1 buffer) was added to each well. After incubating for 15 minutes at AT, the substrate was added (in 20 μl of PP1 buffer). After incubating for 20 minutes at 37° C., the fluorescence was measured in a plate fluorometer at 355-460 nm in order to assay the phosphatase activity. The test was carried out three times in duplicate for each condition.

HMEC cells = assay: Proliferation of HMEC cells (GI50); type: cell-based; details: Homo sapiens, 120 h, 50 μM to 1 nM for 5 days
Description: The HMECs were seeded at 10% confluence and incubated with the molecules at different concentrations (from 50 μM to 1 nM) for 5 days. The GI50 (50% Growth Inhibition) defines the concentration inducing a 50% reduction in proliferation with respect to the control.

T1 sequence (P62139 whole entry): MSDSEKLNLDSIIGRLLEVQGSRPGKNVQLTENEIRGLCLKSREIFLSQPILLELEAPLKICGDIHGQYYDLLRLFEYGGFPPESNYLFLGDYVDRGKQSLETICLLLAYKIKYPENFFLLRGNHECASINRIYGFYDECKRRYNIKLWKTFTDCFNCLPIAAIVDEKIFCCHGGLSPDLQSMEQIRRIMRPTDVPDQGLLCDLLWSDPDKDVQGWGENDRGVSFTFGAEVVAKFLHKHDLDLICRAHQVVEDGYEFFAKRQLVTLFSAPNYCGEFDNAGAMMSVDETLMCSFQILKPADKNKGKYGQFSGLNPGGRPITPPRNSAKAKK

melting point [°C]	pIC50 (PP1α (PP1CA))	Compound	Effect on Hela at 25 μM (HeLa cells)	Tubulin polymerization inhibition (bovine brain tubulin)	GI50 (HMEC cells) [µM]	Effect on Hela at 50 and 100 μM (HeLa cells)	Effect on Hela at 100 μM (HeLa cells)
183 to 185	< 4.30	COc1ccc(-c2[nH]c(=O)c3cc(OC)ccc3c2N(C)C)cc1 [Compound 23, 4-(Dimethylamino)-7-methoxy-3-(4-methoxyphenyl)isoquinoline-1(2H)-one]	***	+ ((+) signifies that the molecule induces tubulin assembly inhibition in vitro comprised between 6 and 25% of the DMSO control.)	1 to 25		
148 to 150	4.30 to 4.60	COc1ccc(-c2nc(SCc3ccccc3)c3cc(OC)ccc3c2[N+](=O)[O-])cc1 [Compound 21, 1-(Benzylthio)-7-methoxy-3-(4-methoxyphenyl)-4-nitroisoquinoline]	—	+++ ((+++) signifies that the molecule induces tubulin assembly inhibition in vitro of more than 50% with respect to the DMSO control.)	> 50		
226 to 228	4.62 to 5.00	COc1ccc(-c2[nH]c(=S)c3cc(OC)ccc3c2[N+](=O)[O-])cc1 [Compound 18, 7-Methoxy-3-(4-methoxyphenyl)-4-nitroisoquinoline-1(2H)-thione]	****	+++ ((+++) signifies that the molecule induces tubulin assembly inhibition in vitro of more than 50% with respect to the DMSO control.)	1 to 25		
177 to 179	≤ 4.30	C#CCOc1nc(-c2ccc(OC)cc2)c([N+](=O)[O-])c2ccc(OC)cc12 [Compound 29, 7-Methoxy-3-(4-methoxyphenyl)-4-nitro-1-(prop-2ynyloxy)isoquinoline]	—	+ ((+) signifies that the molecule induces tubulin assembly inhibition in vitro comprised between 6 and 25% of the DMSO control.)	> 50		
169 to 171	4.30 to 4.60	COc1ccc(-c2nc(Sc3ccccc3)c3cc(OC)ccc3c2[N+](=O)[O-])cc1 [Compound 20, 7-Methoxy-3-(4-methoxyphenyl)-4-nitro-1-(phenylethio)isoquinoline]	—	++ ((++) signifies that the molecule induces tubulin assembly inhibition in vitro comprised between 26 and 50% of the DMSO control.)	> 50	*	
> 270	< 4.30	COc1ccc(-c2[nH]c(=O)c3cc(OC)ccc3c2NC=O)cc1 [Compound 24, N-(7-Methoxy-3-(4-methoxyphenyl)-1-oxo-1,2-dihydroisoquinoline-4-yl)methanamide]	****	+ ((+) signifies that the molecule induces tubulin assembly inhibition in vitro comprised between 6 and 25% of the DMSO control.)	1 to 25		
176 to 178	4.30 to 4.60	COc1ccc(-c2nc(OC)c3cc(OC)ccc3c2[N+](=O)[O-])cc1 [Compound 19, 1,7-Dimethoxy-3-(4-methoxyphenyl)-4-nitroisoquinoline]	—	+ ((+) signifies that the molecule induces tubulin assembly inhibition in vitro comprised between 6 and 25% of the DMSO control.)	> 50		**
164 to 166	< 4.30	COc1ccc(-c2nc(Cl)c3cc(OC)ccc3c2Br)cc1 [Compound 26, 4-Bromo-1-chloro-7-methoxy-3-(4-methoxyphenyl)isoquinoline]	—	— ((−) signifies that the molecule induces little or no tubulin assembly inhibition in vitro: 0+ or − −5% of the DMSO control.)	> 50		
	4.62 to 5.00	O=c1[nH]c(-c2ccc(O)cc2)c(Cl)c2ccc(O)cc12 [Compound 56, 4-Chloro-7-hydroxy-3-(4-hydroxyphenyl)isoquinoline-1(2H)-one]	—	— ((−) signifies that the molecule induces little or no tubulin assembly inhibition in vitro: 0+ or − −5% of the DMSO control.)	> 50		*
	4.62 to 5.00	COc1ccc(-c2cc3ccc(OC)cc3c(OC)n2)cc1 [Compound 64, 1,7-Dimethoxy-3-(4-methoxyphenyl)isoquinoline]	—	— ((−) signifies that the molecule induces little or no tubulin assembly inhibition in vitro: 0+ or − −5% of the DMSO control.)	> 50		
	< 4.30	COc1ccc(-c2[nH]c(=O)c3cc(OC)ccc3c2N)cc1 [Compound 1, 4-amino-7-methoxy-3-(4-methoxyphenyl)isoquinolin-1(2H)-one]	***	— ((−) signifies that the molecule induces little or no tubulin assembly inhibition in vitro: 0+ or − −5% of the DMSO control.)	1 to 25		
	< 4.30	COc1ccc(-c2[nH]c(=O)c3ccccc3c2[N+](=O)[O-])cc1 [Compound 7]	***	+ ((+) signifies that the molecule induces tubulin assembly inhibition in vitro comprised between 6 and 25% of the DMSO control.)	1 to 25		
	< 4.30	COc1ccc2c(N)c(-c3ccccc3)[nH]c(=O)c2c1 [Compound 10]	—	+ ((+) signifies that the molecule induces tubulin assembly inhibition in vitro comprised between 6 and 25% of the DMSO control.)	> 50	*	
